Measurements reported in paper PMC12302426, “Dihydrokoumine, a dual-target analgesic with reduced side effects isolated from a traditional Chinese medicine” (Journal of Advanced Research, 2024).

Columns and labels:
M4R = target: T1, M4R (Homo sapiens, UniProt P08173); assay: FLIPR assay in HEK293-M4 cells (carbachol-induced Ca2+); format: cell-based; conditions: DK pretreatment one hour
T1 construct: expressed in transfected cells
Experimental: (§1) FLIPR assay was carried out as reported earlier. Cell lines were seeded in 96-well plates with black walls (Greiner, USA) at 8.0 × 10^4 cells per well. After approximately 22 h of incubation, the cells were exposed to Calcium-6 dye (Molecular Devices, USA) in HBSS buffer supplemented with 20 mM HEPES (pH 7.4) at 37°C for one hour. Samples, redissolved in DMSO and housed in 96-well drug plates, underwent dilution with FLIPR buffer and subsequent automated introduction to the cells. […] […] Results were presented as fluorescence (arbitrary units) plotted against time.

M2R = target: T2, M2R (Homo sapiens, UniProt P08172); assay: FLIPR assay in HEK293-M2 cells (carbachol-induced Ca2+); format: cell-based; conditions: DK pretreatment one hour
T2 construct: expressed in transfected cells
T2 sequence (P08172 whole entry): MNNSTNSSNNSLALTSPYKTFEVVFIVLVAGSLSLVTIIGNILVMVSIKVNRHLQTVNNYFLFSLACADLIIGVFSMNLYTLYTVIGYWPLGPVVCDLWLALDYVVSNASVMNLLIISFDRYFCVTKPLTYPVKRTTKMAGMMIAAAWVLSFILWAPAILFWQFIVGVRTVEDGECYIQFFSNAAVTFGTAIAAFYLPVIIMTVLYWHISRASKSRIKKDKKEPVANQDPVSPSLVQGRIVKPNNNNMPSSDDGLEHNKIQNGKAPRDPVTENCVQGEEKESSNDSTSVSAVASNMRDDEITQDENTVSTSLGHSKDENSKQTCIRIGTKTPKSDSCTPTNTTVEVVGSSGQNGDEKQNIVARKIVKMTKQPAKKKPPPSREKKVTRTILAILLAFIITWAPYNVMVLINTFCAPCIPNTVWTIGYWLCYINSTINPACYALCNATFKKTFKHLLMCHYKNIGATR
Experimental: as §1

NOP opioid receptor = target: T3, NOP opioid receptor (Homo sapiens, UniProt P41146); assay: DMR agonist and desensitization assay in HEK293-NOP cells; format: cell-based
T3 construct: expressed in transfected cells; host or cells: HEK293-NOP
T3 sequence (P41146 whole entry): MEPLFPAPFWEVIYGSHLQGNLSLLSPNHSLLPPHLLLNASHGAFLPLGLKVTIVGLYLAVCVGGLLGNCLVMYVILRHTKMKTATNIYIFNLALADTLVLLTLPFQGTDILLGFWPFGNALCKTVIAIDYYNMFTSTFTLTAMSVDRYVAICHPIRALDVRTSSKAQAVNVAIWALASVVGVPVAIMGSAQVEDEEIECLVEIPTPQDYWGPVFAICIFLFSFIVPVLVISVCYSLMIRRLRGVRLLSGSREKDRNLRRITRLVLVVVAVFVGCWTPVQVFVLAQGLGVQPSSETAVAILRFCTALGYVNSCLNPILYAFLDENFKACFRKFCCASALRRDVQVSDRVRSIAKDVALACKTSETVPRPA
Experimental: (§2) DMR assays were performed using an Epic® BT system (Corning, NY, USA). All used cell lines were directly seeded in Epic 384-well biosensor microplates with a seeding density of 25,000 cells per well. After being cultured for about 22 h, the cells formed a monolayer with a confluency of about 95 % in the cell culture medium. Then the cells were manually washed using assay buffer (1 × HBSS buffer, 10 mM HEPES, pH = 7.4) and maintained in 30 μL of the assay buffer for 1 h. All samples were dissolved in DMSO and diluted freshly with the assay buffer containing 0.1 % BSA.
(§3) The DMR assays were conducted as follows. […] In the case of the DMR desensitization assay, cells were pretreated with analytes for one hour before introducing a specific agonist at the indicated concentration, and the agonist-induced DMR signals were monitored for one hour. Finally, for the DMR antagonist assay, cells underwent a 1-hour pretreatment with an antagonist before the addition of a specific agonist at the indicated concentration, and subsequent DMR signals were recorded over one hour.
The receptor selectivity was evaluated against a set of G protein-coupled receptors (GPCRs), including opioid receptor (Delta/Kappa/NOP), dopamine receptor (D1/D2), orphan receptor (GPR35), adrenergic receptor (α2A/β2), serotonin receptor (5HT2A), histamine receptor (H1) and cannabinoid receptor (CB1). […]

HEK293T cells = assay: Cytotoxicity assay (CCK-8), HEK293T; format: cell-based; conditions: 24 h
Experimental: HEK293T, CHO, and HUVEC cell lines were cultured overnight in 96-well plates before exposure to compounds for 24 h. Cell viability was evaluated using the Cell Counting Kit-8 (CCK-8, Beyotime Biotechnology, China), and absorbance at 450 nm was measured with a microplate reader. Cell survival rates were calculated relative to control conditions.

Kappa opioid receptor = target: T4, Kappa opioid receptor (Homo sapiens, UniProt P41145); assay: DMR agonist and desensitization assay in HEK293-Kappa cells; format: cell-based
T4 construct: expressed in transfected cells; host or cells: HEK293-Kappa
T4 sequence (P41145 whole entry): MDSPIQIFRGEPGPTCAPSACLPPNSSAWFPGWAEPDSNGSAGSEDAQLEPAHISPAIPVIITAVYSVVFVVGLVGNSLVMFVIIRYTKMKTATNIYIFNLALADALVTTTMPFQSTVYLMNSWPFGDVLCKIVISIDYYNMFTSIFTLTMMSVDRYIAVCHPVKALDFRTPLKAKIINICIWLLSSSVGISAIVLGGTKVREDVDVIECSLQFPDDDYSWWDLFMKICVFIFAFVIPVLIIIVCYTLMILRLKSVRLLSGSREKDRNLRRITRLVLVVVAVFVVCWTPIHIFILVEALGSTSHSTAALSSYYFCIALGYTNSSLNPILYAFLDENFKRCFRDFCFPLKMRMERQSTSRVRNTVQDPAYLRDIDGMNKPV
Experimental: as §2, §3
(§4) The receptor selectivity was evaluated against a set of G protein-coupled receptors (GPCRs), including opioid receptor (Delta/Kappa/NOP), dopamine receptor (D1/D2), orphan receptor (GPR35), adrenergic receptor (α2A/β2), serotonin receptor (5HT2A), histamine receptor (H1) and cannabinoid receptor (CB1). Following a 1-hour pretreatment with DK, a 2-min baseline was established before introducing probes and monitoring DMR signals for another hour. The cells and probes were as follows: Delta, HEK293-Delta, SNC162; Kappa, HEK293-Kappa, ICI199441; NOP, HEK293-NOP, MCOPPB; D1, HEK293-D1, dopamine; D2, HEK293-D2, dopamine; GPR35, CHO-K1-hGPR35, zaprinast; 5HT2A, HEK293-5HT2A, 5-hydroxytryptamine; α2A, HEK293-α2A, L-Noradrenaline; β2, A431, isoprenaline; H1, A431, histamine; CB1, CHO-K1-CB1, CP 55940. The other detailed process was the same as above.

M1R = target: T5, M1R (Homo sapiens, UniProt P11229); assay: FLIPR assay in CHO-M1 cells (carbachol-induced Ca2+); format: cell-based; conditions: DK pretreatment one hour
T5 construct: expressed in transfected cells
T5 sequence (P11229 whole entry): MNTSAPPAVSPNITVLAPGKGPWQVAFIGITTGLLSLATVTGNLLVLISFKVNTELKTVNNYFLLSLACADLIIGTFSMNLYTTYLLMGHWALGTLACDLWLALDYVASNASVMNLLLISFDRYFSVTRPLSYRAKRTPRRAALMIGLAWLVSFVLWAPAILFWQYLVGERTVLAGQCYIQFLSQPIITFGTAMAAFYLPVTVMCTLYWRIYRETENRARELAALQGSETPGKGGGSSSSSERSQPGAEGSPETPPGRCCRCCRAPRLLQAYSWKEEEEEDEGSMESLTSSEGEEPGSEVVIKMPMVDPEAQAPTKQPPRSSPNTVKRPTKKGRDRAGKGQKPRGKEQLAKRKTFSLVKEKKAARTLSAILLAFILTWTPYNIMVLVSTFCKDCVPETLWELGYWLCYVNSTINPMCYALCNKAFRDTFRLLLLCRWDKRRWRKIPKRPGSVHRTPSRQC
Experimental: as §1

[1] = Pharmacokinetics, blood-brain barrier permeability; format: in vivo, C57BL/6 male mice
Experimental: Blood‐brain barrier permeability evaluation was as follows. C57BL/6 male mice (about 25 g) were used in evaluation of blood‐brain barrier permeability (n = 3). Mice were given a single dose of DK (20 mg/kg, 5 mL/kg, i.p.) through intraperitoneal injection. Blood (300 μL) was collected at 0.167, 0.5, 1, 2, 3 and 4 h into EDTA tubes. Plasma was obtained by mixing with acetonitrile and centrifugation (3000 r/min, 10 min). Meanwhile, brains were excised after saline perfusion at these time points. Brain samples were grinded (70 Hz, 90 s) and sonicated (30 s) to break up the tissue, followed by centrifugation (15,000 r/min, 10 min, […]) to obtain brain sample.
Brain and plasma drug levels were measured by LC-30AD (Shimadzu Corporation Kyoto, Japan) and SCIEX QTRAP-6500 (AB Sciex, Foster City, CA, USA) and calculated by comparing with internal standard (koumine, 200 ng/mL). The used column was Waters ACQUITY UPLC BEH C18 (2.1*150 mm, 1.7 μm); the mobile phase was composed of (A) 0.1 % FA in water and (B) 0.1 % FA in ACN; the elution gradient was 20 % B (0–3 min), 20–40 % B (3–5 min), 40–95 % B (5–6 min); the flow rate was 0.3 mL/min; and detection was in the positive mode.

M3R = target: T6, M3R (Homo sapiens, UniProt P20309); assay: Radioligand binding assay, [3H] NMS; conditions: [3H] NMS 0.2 nM
T6 construct: expressed in transfected cells; host or cells: HEK293 cell membranes
T6 sequence (P20309 whole entry): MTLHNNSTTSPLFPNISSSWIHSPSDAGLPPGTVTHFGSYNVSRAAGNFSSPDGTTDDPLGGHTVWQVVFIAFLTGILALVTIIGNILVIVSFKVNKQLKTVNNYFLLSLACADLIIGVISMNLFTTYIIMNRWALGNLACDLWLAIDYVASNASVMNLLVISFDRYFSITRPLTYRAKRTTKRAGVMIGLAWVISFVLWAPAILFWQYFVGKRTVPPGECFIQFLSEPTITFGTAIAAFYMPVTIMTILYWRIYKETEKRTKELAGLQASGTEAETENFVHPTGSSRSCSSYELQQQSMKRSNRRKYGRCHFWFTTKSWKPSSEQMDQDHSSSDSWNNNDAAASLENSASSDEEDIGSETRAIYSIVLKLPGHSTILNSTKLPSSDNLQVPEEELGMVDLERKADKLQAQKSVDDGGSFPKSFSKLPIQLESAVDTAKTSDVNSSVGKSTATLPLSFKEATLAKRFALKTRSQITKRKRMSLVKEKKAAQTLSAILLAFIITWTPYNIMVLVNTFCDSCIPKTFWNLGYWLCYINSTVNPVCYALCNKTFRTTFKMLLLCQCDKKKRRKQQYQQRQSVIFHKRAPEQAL
Experimental: Radioligand binding assays were conducted using MicroBeta2 (PerkinElmer, USA). Membrane protein preparations MOR and M3R were each prepared at a concentration of 2.5 µg/well. The radio ligands [^3H] DAMGO (specific for MOR) and [^3H]-NMS (specific for M3R) were prepared at concentrations of 0.5 nM and 0.2 nM, respectively. […] For each well, 1 µL of the serially diluted test compounds was transferred, followed by the addition of 100 µL of membrane stock solution and 100 µL of radioligand. The plates were sealed and shaken at 300 rpm at room temperature for one hour. Upon completion of the binding assay, the contents of each well were filtered through Unifilter-96 GF/C filter plates (PerkinElmer, USA). The filter plates were dried for one hour at 50°C and sealed. The trapped ^3H (tritium) on the filters was then quantified using the MicroBeta2. The percentage of inhibition or binding was subsequently calculated.

orphan receptor GPR35 = target: T7, orphan receptor GPR35 (Homo sapiens, UniProt Q9HC97); assay: DMR desensitization assay, CHO-K1-hGPR35, probe zaprinast; format: cell-based; conditions: 100 μM DK
T7 construct: expressed in transfected cells; host or cells: CHO-K1-hGPR35
T7 sequence (Q9HC97 whole entry): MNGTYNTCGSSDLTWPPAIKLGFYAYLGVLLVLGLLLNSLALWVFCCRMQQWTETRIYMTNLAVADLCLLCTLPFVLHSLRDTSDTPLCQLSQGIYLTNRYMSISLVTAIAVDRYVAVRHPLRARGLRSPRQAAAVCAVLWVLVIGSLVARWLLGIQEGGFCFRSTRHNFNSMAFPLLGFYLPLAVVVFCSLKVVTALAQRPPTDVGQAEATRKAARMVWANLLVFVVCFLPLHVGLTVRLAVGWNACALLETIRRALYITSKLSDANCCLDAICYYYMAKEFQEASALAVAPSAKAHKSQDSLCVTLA
Experimental: as §2
as §4, with “The other detailed process was the same as above.” left out

T1 sequence (P08173 whole entry): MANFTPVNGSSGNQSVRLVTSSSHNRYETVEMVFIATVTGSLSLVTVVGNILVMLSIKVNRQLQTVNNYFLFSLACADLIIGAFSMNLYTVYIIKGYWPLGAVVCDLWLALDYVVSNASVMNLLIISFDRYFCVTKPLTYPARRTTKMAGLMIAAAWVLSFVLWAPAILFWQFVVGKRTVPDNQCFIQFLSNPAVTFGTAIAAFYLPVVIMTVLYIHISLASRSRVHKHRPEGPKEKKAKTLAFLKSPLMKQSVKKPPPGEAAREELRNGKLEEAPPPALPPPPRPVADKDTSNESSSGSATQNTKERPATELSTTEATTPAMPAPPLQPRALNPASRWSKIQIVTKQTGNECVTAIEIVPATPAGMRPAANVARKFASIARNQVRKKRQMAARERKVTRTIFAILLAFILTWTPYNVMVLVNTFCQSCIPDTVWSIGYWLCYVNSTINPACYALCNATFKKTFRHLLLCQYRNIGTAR

SMILES: C=CC12CN(C)C3CC14c1ccccc1NC4C1CC2C3CO1 (stereo not drawn) [DK]
- inhibition of carbachol-induced Ca2+ response (M4R): could not concentration-dependently inhibit
- inhibition of carbachol-induced Ca2+ response (M2R): could not concentration-dependently inhibit
- DMR agonist response (NOP opioid receptor; HEK293-NOP cells): unable to trigger a concentration-dependent DMR response
- probe-induced DMR response after DK pretreatment (NOP opioid receptor; HEK293-NOP, 25 nM MCOPPB, pretreatment one hour): had little effect on the DMR response produced by the respective probes
- cytotoxicity (cell viability) (HEK293T cells): had a little effect on HEK293T cells but not in a concentration-dependent manner
- DMR agonist response (Kappa opioid receptor; HEK293-Kappa cells): unable to trigger a concentration-dependent DMR response
- probe-induced DMR response after DK pretreatment (Kappa opioid receptor; HEK293-Kappa, 25 nM ICI199441, pretreatment one hour): had little effect on the DMR response produced by the respective probes
- antagonist effect at high concentration (decrease of probe DMR response) (Kappa opioid receptor; HEK293-Kappa, ICI199441, high-concentration of DK): very weak antagonist effects
- inhibition of carbachol-induced Ca2+ response (M1R): could not concentration-dependently inhibit
- Kp ([1]; male, C57BL/6, mouse, brain/plasma, ip, 20 mg/kg, read-out: Kp (AUCbrain/AUCplasma)): 1.27
- AUC ([1]; male, C57BL/6, mouse, ip, mice, plasma, i.p., 20 mg/kg (method), read-out: (AUC)0-4 h in plasma): 733 ng·h/mL
- (AUC)0-4 h in brain ([1]; mice, brain, i.p., 20 mg/kg (method)): 933.4 ng·h/g
- Ki (M3R): 55.2 ± 11 µM
- efficacy (maximal inhibition of radioligand binding) (M3R): 74.6%
- reduction of probe DMR response (desensitization) (orphan receptor GPR35): almost unable to reduce the response
